Molecules are shown by their SMILES.

From article PMC9253268 (Frontiers in Immunology, 2022) come the findings set out here.

Assay [1] concerns NLRP3 inflammasome-induced pyroptosis. The assay is described as follows: NLRP3 inflammasome-induced pyroptosis markers in AIA-M rats (TUNEL, IHC, Western blotting, ELISA). In kind it is in vivo, rat. The following applies: all p < 0.05. The procedure:
The occurrence of pyroptosis in both MH7A cells and synovium tissues in AIA-M rats was determined by in situ TUNEL staining (TUNEL Andy Fluor™ 594 Apoptosis Detection Kit, ABP Biosciences, Wuhan, China) in accordance with the manufacturer’s protocol. Fluorescence images were visualized and photographed with inverted fluorescence microscopes (MF53, MSHOT, Guangzhou, China; Olympus, BX51, Tokyo, Japan). Detailed information on TUNEL assay is provided in Supplementary Materials Section 18 .
To detect the expression levels of NLPR3/ASC of the knee joints in AIA-M rats and corresponding treatment groups, immunohistochemical staining was carried out using a DAB kit (Cat No. AR1027, Boster Biological Technology Co., Ltd., Wuhan, China) and a rabbit/mouse two-step detection kit (Cat No. SV0002/SV0001, Boster Biological Technology Co., Ltd., Wuhan, China) according to the routine protocols. Immunohistochemistry quantification was performed using ImageJ (Image Progressing and Analysis in Java, version 1.42q, https://imagej.nih.gov/ij/), following the ImageJ User Guide. […]
Cell apoptosis was determined by in situ terminal deoxynucleotidyl transferase-mediated dUTP-biotin nick end-labeling reaction (TUNEL) staining (TUNEL Andy Fluor™ 594 Apoptosis Detection Kit, ABP Biosciences, Wuhan, China) in accordance with the […]
On the technique in general: In western blotting, separated proteins are transferred to a membrane and probed.

The next assay deals with AIA-M rat model. The assay is described as follows: Histology of knee joints of AIA-M rats (H&E, safranin O fast green, Masson trichrome). In kind it is in vivo. The following applies: all p < 0.05. The procedure:
The viscera indexes were calculated by the weight of the thymus, spleen, liver, and kidney relative to total […]. Histological changes were examined using hematoxylin and eosin (H&E), safranin O-fast green (Solarbio, Beijing, China), and Masson trichrome staining (Baso, Wuhan, China) according to routine protocols. Please see detailed information on the protocol in Supplementary Materials Section 5 . […]
after BHGZD administration (5), respectively.
The rats were acclimatized to an apparatus consisting of individual perspex boxes. With the aid of syringe (1mL), 500μL acetone was sprayed gently from a short distance to the middle of the plantar surface of hind paw. […] The amount of time that rats were licking and/or shaking the hind paw was recorded during 5min after acetone application and was used as an index of nocifensive response for cold hypersensitivity (6). The licking and/or shaking time was measured at 0, 5, 10, 15, 25th day after BHGZD administration, […]
For thermal-induced hyperalgesia, the rats were placed for 30minin an apparatus consisting of individual perspex boxes with Hargreaves radiant heat apparatus (Ugo Basile Srl, Comerio VA, Italy) and an infrared radiant heat (40W) source was directed to middle part of the plantar surface of the hind paw. […] The paw withdrawal latency was measured at 0, 5, 10, 15, 25th day after BHGZD administration, respectively. […]

For `CN(Cc1cnc2nc(N)nc(N)c2n1)c1ccc(C(=O)N[C@@H](CCC(=O)O)C(=O)O)cc1` [MTX, methotrexate], in assay [1], the “activities of GSDMD-NT in sera and its levels in knee joints” value was “reduced”; the “activity of LDH in the sera” value was “significantly decreased”. The “histopathological changes of knee joints (inflammatory cell infiltration, cartilage and bone destruction, synovial hyperplasia)” value in the assay on AIA-M rat model was “apparently reversed”.
